# Assays:
# Test in all cases: relative viability (nuclei count vs DMSO), 5 days (fraction); higher = more cells survive
# [1] = compound: COc1nc(N)nc2c1ncn2[C@@H]1O[C@H](CO)[C@@H](O)[C@@H]1O [Nelarabine] + N=C(N)NC(=N)NCCc1ccccc1 [Phenformin] (partner 250 µM)
# How it was run: (§1)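 One day after seeding in 1536-well plates, lung cancer cell lines were dosed by pin tool. Dosing was either single-drug or a fixed anchor-drug dose plus five library-drug doses (not always all listed) in √10 steps. After 5 days, nuclei were stained in one fix-and-stain step and counted on 4× images, and relative viability is the nuclei count of treated wells over that of vehicle wells, given as the median of duplicate plates.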
# [2] = compound: C=CCn1c(=O)c2cnc(Nc3ccc(N4CCN(C)CC4)cc3)nc2n1-c1cccc(C(C)(C)O)n1 [Adavosertib] + NC(=O)Nc1cc(-c2cccc(F)c2)sc1C(=O)N[C@H]1CCCNC1 [AZD7762] (partner 0.2 µM)
# How it was run: as §1
# [3] = compound: C=CCn1c(=O)c2cnc(Nc3ccc(N4CCN(C)CC4)cc3)nc2n1-c1cccc(C(C)(C)O)n1 [Adavosertib] + Nc1nc2[nH]cc(CCc3ccc(C(=O)N[C@@H](CCC(=O)O)C(=O)O)cc3)c2c(=O)[nH]1 [Pemetrexed] (partner 0.2 µM)
# How it was run: as §1
# [4] = compound: C=CCn1c(=O)c2cnc(Nc3ccc(N4CCN(C)CC4)cc3)nc2n1-c1cccc(C(C)(C)O)n1 [Adavosertib] + Cc1cc(Nc2cc(N3CCN(C)CC3)nc(Sc3ccc(NC(=O)C4CC4)cc3)n2)n[nH]1 [Tozasertib] (partner 0.1 µM)
# How it was run: as §1
Cell Line,relative viability ([1]; first compound 0.01 µM),relative viability ([1]; first compound 0.03162 µM),relative viability ([1]; first compound 0.1 µM),relative viability ([1]; first compound 0.3162 µM),relative viability ([1]; first compound 1 µM),relative viability ([2]; first compound 0.01 µM),relative viability ([2]; first compound 0.03162 µM),relative viability ([2]; first compound 0.1 µM),relative viability ([2]; first compound 0.3162 µM),relative viability ([3]; first compound 0.01 µM),relative viability ([3]; first compound 0.03162 µM),relative viability ([3]; first compound 0.1 µM),relative viability ([3]; first compound 0.3162 µM),relative viability ([4]; first compound 0.01 µM),relative viability ([4]; first compound 0.03162 µM),relative viability ([4]; first compound 0.1 µM),relative viability ([4]; first compound 0.3162 µM)
ChaGo-K-1,0.549,0.426,0.458,0.529,0.48,0.918,0.836,0.732,0.29,0.271,0.255,0.258,0.257,0.228,0.243,0.229,0.228
RERF-LC-KJ,0.436,0.427,0.403,0.403,0.425,0.987,1.02,1.02,0.878,0.384,0.463,0.481,0.471,0.555,0.627,0.577,0.668
HCC-366,0.644,0.602,0.663,0.585,0.589,0.292,0.21,0.184,0.0419,0.227,0.143,0.136,0.0818,0.137,0.132,0.145,0.169
NCI-H460,1.35,0.648,0.646,0.611,0.482,0.376,0.507,0.169,0.0591,0.0616,0.0693,0.0573,0.0705,0.533,0.495,0.534,0.721
NCI-H1915,0.378,0.315,0.367,0.371,0.367,0.724,0.657,0.566,0.238,0.528,0.464,0.346,0.259,0.433,0.441,0.509,0.524
NCI-H441,0.862,0.93,0.666,0.898,0.883,1.12,0.989,0.658,0.355,0.235,0.265,0.275,0.225,0.688,0.685,0.801,0.636
LCLC-103H,0.329,0.283,0.333,0.328,0.345,0.786,0.783,0.775,0.408,0.445,0.462,0.427,0.449,0.5,0.501,0.572,0.451
HARA,0.62,0.488,0.422,0.579,0.505,0.296,0.192,0.155,0.129,0.244,0.22,0.229,0.191,0.125,0.128,0.111,0.0667
NCI-H1755,0.63,0.548,0.547,0.659,0.619,0.455,0.33,0.327,0.253,0.419,0.43,0.43,0.392,0.649,0.581,0.682,0.535
LXF-289,0.532,0.574,0.526,0.571,0.524,1.08,0.984,0.683,0.231,0.914,0.931,0.856,0.722,0.174,0.192,0.205,0.261
HCC-44,0.194,0.157,0.173,0.167,0.185,0.989,0.971,1.02,0.902,0.677,0.602,0.574,0.433,1.02,0.951,1.24,1.15
HOP-62,0.787,0.508,0.696,0.777,0.667,0.697,0.382,0.364,0.116,0.311,0.285,0.283,0.224,0.356,0.409,0.414,0.329
NCI-H2126,0.593,0.545,0.51,0.508,0.517,0.962,1.03,0.949,0.788,0.615,0.66,0.695,0.643,0.808,0.834,0.863,0.924
NCI-H1355,0.442,0.413,0.418,0.433,0.455,0.734,0.599,0.406,0.307,0.984,1.03,0.965,0.808,0.549,0.553,0.522,0.615
NCI-H1944,0.209,0.195,0.229,0.195,0.203,0.511,0.31,0.23,0.164,0.621,0.582,0.428,0.27,0.227,0.241,0.23,0.269
